# Read-outs that look alike come from different tables or passages of the source. Peptide text beside a SMILES is read from it. * marks the point of attachment. Galloyl = O=C(c1cc(O)c(O)c(O)c1)*; X1 = CN(C)c1ccc(C(=O)*)cc1
# Legend:
# [1] = MTT cytotoxicity assay in Huh-7 cells; format: cell-based; conditions: human
# Description: (§1) Cytotoxicity in BHK-21 and Huh-7 cells was evaluated using the 3-(4,5-dimethylthiazol-2-yl)-2,5-diphenyltetrazolium bromide (MTT) assay as previously described. The cells (5 × 10^3 per well) were seeded in 96-well culture plates (TPP, Trasadingen, Switzerland). After 24 h, the cells were incubated with the peptides at concentrations of 1.6, 3.1, 6.3, 12.5, 25, 50, and 100 µM for 24 h. Then, the medium containing the peptides was removed, and 100 µL of MTT (Sigma-Aldrich, St. Louis, MO, USA) diluted in DMEM (Cultilab, Campinas, SP, Brazil) (1 mg/mL) was added to each well of the plate (1 mg/mL). After 30 min of incubation at 37 °C, the medium containing MTT (Sigma-Aldrich, St. Louis, MO, USA) was removed, and 100 µL of dimethylsulfoxide (DMSO, Synth, Diadema, SP, Brazil) was added to the cells. The plate was agitated at 200 rpm. After 5 min, the absorbance was measured at a wavelength of 572 nm on a plate reader (FLUOstar Omega/BMG LABTECH, Ortenberg, Germany). The CC50 values were calculated using GraphPad Prism 5.0 software (GraphPad Software, San Diego, CA, USA).
# (§2) All the described experiments were performed in three independent events, each of which was carried out in three (cytotoxicity) and four (antiviral activity) technical replicates. The CC50 and EC50 values were determined by nonlinear regression of the dose-response curves (Log [peptide] × response). The statistical significance was determined employing the paired Student’s t-test for parametric results and the Mann–Whitney test for nonparametric data using GraphPad Prism 5.0 software (GraphPad Software, San Diego, CA, USA). A p-value < 0.05 was considered statistically significant.
# [2] = MTT cytotoxicity assay in BHK-21 cells; format: cell-based; conditions: hamster
# Description: as §1, §2
# CHIKV-NLuc = format: cell-based, Chikungunya virus; conditions: CHIKV-NLuc MOI 0.1, 16 h, NLuc activity
# Description: Measurement of the activity of the virus-encoded NanoLuciferase (NLuc) reporter was used to evaluate the antiviral activity of the peptides against CHIKV-NLuc at the end of every assay with the peptides. Cells were infected with CHIKV-NLuc, and the supernatant was aspirated 16 h post-infection (h.p.i.), and each well of the plate was washed with PBS solution. Then, 30 µL of Renilla Luciferase Assay Lysis Buffer (Promega, Madison, WI, USA) was added to the cells. After 30 min, 50 μL of substrate for Renilla Luciferase (Renilla Luciferase assay reagent, Promega, Madison, WI, USA) was automatically injected in the wells into the plate reader (FLUOstar Omega/BMG LABTECH, Ortenberg, Germany), and the light intensity reading was performed. The values obtained are shown as the percentage of protein NLuc activity in the control (samples treated with sterile water).
# The effects of the peptides on the CHIKV infectious cycle were analyzed as previously described. BHK-21 and Huh-7 cells (1 × 10^4 per well) were seeded in 96-well white culture plates (Greiner Bio-One, Americana, SP, Brazil) for 24 h. Then, the virus at an MOI of 0.1 and the peptides at the MNTC were simultaneously added to the cells. The plate was incubated at 37 °C for 16 h, and then antiviral activity against CHIKV was evaluated through NLuc activity. […] The SI was calculated using the ratio CC50/EC50.
# as §2
# BHK-21 and Huh-7 cells = assay: MTT cytotoxicity, maximum nontoxic concentration over both cell lines; format: cell-based, hamster; human
# Description: The cytotoxicity of the peptides GA-Hecate, PSSct1905, and PSSct1910 was evaluated in baby hamster kidney fibroblast cells (BHK-21) and human hepatocarcinoma epithelial cells (Huh-7). We defined the maximum nontoxic concentration (MNTC), expressed in µM, as the highest peptide concentration that kept at least 80% of BHK-21 and Huh-7 cells viable within 24 h.
# as §1, with “The plate was agitated at 200 rpm.” left out
Compound,CC50 at 24 h [1] [µM],CC50 at 24 h [2] [µM],EC50 (CHIKV-NLuc; BHK-21 cells) [µM],EC50 (CHIKV-NLuc; Huh-7 cells) [µM],increase in the CC50 value compared to GA-Hecate (BHK-21 and Huh-7 cells; more prominent in BHK-21 cells),"MNTC (maximum nontoxic concentration) (BHK-21 and Huh-7 cells; highest concentration keeping at least 80% of BHK-21 and Huh-7 cells viable within 24 h, MTT) [µM]"
CC(C)C[C@H](NC(=O)[C@H](C)NC(=O)[C@H](CCCCN)NC(=O)[C@H](CCCCN)NC(=O)[C@H](CC(C)C)NC(=O)[C@H](C)NC(=O)[C@H](CCCCN)NC(=O)[C@H](CCCCN)NC(=O)[C@H](CC(C)C)NC(=O)[C@H](CCCCN)NC(=O)[C@H](CCCCN)NC(=O)[C@H](CC(C)C)NC(=O)[C@H](C)NC(=O)[C@H](CCCCN)NC(=O)[C@H](CCCCN)NC(=O)[C@H](CC(C)C)NC(=O)[C@H](C)NC(=O)[C@H](CCCCN)NC(=O)[C@H](CC(C)C)NC(=O)[C@H](C)NC(=O)[C@H](CC(C)C)NC(=O)[C@H](C)NC(=O)[C@H](Cc1ccccc1)NC(=O)c1cc(O)c(O)c(O)c1)C(N)=O [GA-Hecate] (Galloyl-FALALKALKKALKKLKKALKKAL-NH2),221,23.3,5.7,4.5,–,–
"CC(C)C[C@H](NC(=O)[C@H](CCCCN)NC(=O)[C@H](CCCCN)NC(=O)[C@H](CC(C)C)NC(=O)[C@H](C)NC(=O)[C@H](CCCCN)NC(=O)[C@H](CCCCN)NC(=O)[C@H](CC(C)C)NC(=O)[C@H](C)NC(=O)[C@H](CCCCN)NC(=O)[C@H](CC(C)C)NC(=O)[C@H](C)NC(=O)[C@H](CC(C)C)NC(=O)[C@H](C)NC(=O)[C@H](Cc1ccccc1)NC(=O)c1cc(O)c(O)c(O)c1)C(=O)O [PSSct1905, GA-FALALKALKKALKKL-COOH] (Galloyl-FALALKALKKALKKL-OH)",205,56.5,8.4,7.1,approximately 2 fold,–
CC(C)C[C@H](NC(=O)[C@H](C)NC(=O)[C@H](CCCCN)NC(=O)[C@H](CCCCN)NC(=O)[C@H](CC(C)C)NC(=O)[C@H](C)NC(=O)[C@H](CCCCN)NC(=O)[C@H](CCCCN)NC(=O)[C@H](CC(C)C)NC(=O)[C@H](CCCCN)NC(=O)[C@H](CCCCN)NC(=O)[C@H](CC(C)C)NC(=O)[C@H](C)NC(=O)[C@H](CCCCN)NC(=O)[C@H](CCCCN)NC(=O)[C@H](CC(C)C)NC(=O)[C@H](C)NC(=O)[C@H](CCCCN)NC(=O)[C@H](CC(C)C)NC(=O)[C@H](C)NC(=O)[C@H](CC(C)C)NC(=O)[C@H](C)NC(=O)[C@H](Cc1ccccc1)NC(=O)c1ccc(N(C)C)cc1)C(N)=O [PSSct1910] (X1-FALALKALKKALKKLKKALKKAL-NH2),7.7,5.4,1.1,0.2,–,1.6

# Reference: publication PMC10610090, “The Synthetic Peptide GA-Hecate and Its Analogs Inhibit Multiple Steps of the Chikungunya Virus Infection Cycle In Vitro” (Pharmaceuticals, 2023)
